Reference: patent US20050196806A1, “Prostate specific antigen oligoepitope peptide” (The Government of the USA, as represented by the Secretary, …, priority 1996, published 2005)
≈ marks a conversion by molar mass, not a printed value. Marks after values point to notes of the source that are not given here. Residues, ends and D or L forms follow the SMILES beside them.

Assays:
[1] = Solubility of synthesized peptide; type: physicochemical; settings: in 1% DMSO
Procedure: PSA-OP was synthesized on an Applied Biosystems Model 432A peptide synthesizer. It operates on a 25 μmole scale and employs f-moc chemistry and feedback monitoring to control the coupling of each successive amino acid to the growing chain. The completed peptide is cleaved off the synthesis resin with -trifluoroacetic acid and thioanisole/ethanedithiol as scavengers. Acid salts are extracted with tert-butyl methyl ether and the peptide is lyophilized from water to give approximately 64 mg powder. The powder is soluble at 2 mg/ml in 1% DMSO and sterile-filtered aliquots show a single sharp peak on C18 reverse phase high performance liquid chromatography.

human HLA A2 molecules = molecular target: T1, human HLA A2 molecules (Homo sapiens, UniProt P04439, D140Y/D185E/D98H/E176V/E277Q/G131W/G231S/I119V/I121R/I166T/I218V/L300P/L318F/N151K/N90K/P208A/P217A/Q86G/Q94H/R138H/R169H/T345S); assay: T2 cell binding assay (PSA peptide binding assay, Example II); settings: peptides at 50 μg/ml, None = 127.25
T1 construct: endogenous in cells; host or cells: T2 cells (174CEM.T2)
Text: The amino acid sequence of human PSA was scanned using a predictive algorithm that combines a search for anchor residues with numerical assignments to all residues at all positions. The T2 cell binding assay was then used to determine which peptides bound human HLA A2 molecules. […] Table 7 gives the amino acid sequence of these peptides and compares them to corresponding sequences of HGK and PKA.

CIR-A2 cells = assay: Effects of protease inhibitors on CTL mediated killing of CIRA2 cells pulsed with PSA-OP; type: cell-based, human; settings: Donor-1 PSA-OP CTL, 25:1 E:T ratio; for % of Specific Release (+/−SD), CIRA2 cells, No peptide: Medium 7.7 (1.9)
Procedure: Various target cells were labeled with 50 μCi of ^111In-oxyquinoline (Medi-Physics Inc., Arlington, Ill.) for 15 minutes at room temperature. Target cells (0.2×10^4) in 100 μl of complete medium (see below) were added to each of 96 wells in flat bottom assay plates (Corning Costar Corp.). The labeled targets were incubated with peptides at a final concentration of 50 μg/ml for 60 min at 37° C. in 5% CO2 before adding effector cells. Effector cells were suspended in 100 μl of complete medium supplemented with 5% pooled human AB serum and added to target cells. The plates were incubated at 37° C. for 16 hours. Supernatants were harvested for γ-counting using harvester frames (Skatron, Inc. Sterling, Va.). Determinations were carried out in triplicate and standard deviations were calculated. All experiments were carried out three times. Specific Lysis was calculated using the following formula: % of Specific Release=observed release(cpm)−spontaneous release(cpm) total releae(cpm)−spontaneous release(cpm)×100
[…] Peptide pulsed target cells were incubated with protease inhibitors. Protease inhibitors used were E64, carboxypeptidase inhibitor, plummer inhibitor, and captopril (angiotension converting enzyme inhibitor) at various concentrations (10^−5, 10^−6, 10^−7 M). CTL activity was determined by the CTL assay described above.

NK target K562 = assay: Cytotoxic assay of PSA peptide specific T cells against K562; type: cell-based, human; settings: 24 hour assay, E:T ratio 25:1
Text: (§1) Four of the T cell lines derived from three different individuals were then assays for their ability to lyse human cells (Table 9). […] No lysis was seen using the PSA negative human colon cancer cell line COLO-205. While 80% lysis was seen using the LNCAP PSA expressing human prostate cancer cell line. When employing the NK target K562, which measures non-specific lysis due to NK cell activity, only 23% lysis was obtained. Similar results were seen employing a different T cell line obtained from the same patient which was derived from pulsing with PSA peptide 154-163. Two additional T cell lines which were derived from peptide 154-163 were also analyzed. One was from a normal donor (T-1538) and one was from a prostate cancer patient (T-PC2; T Donor C).

[2] = molecular target: T2, HLA class-I A2001 molecule (Homo sapiens, UniProt P04439, D140Y/D185E/D98H/E176V/E277Q/G131W/G231S/I119V/I121R/I166T/I218V/L300P/L318F/N151K/N90K/P208A/P217A/Q86G/Q94H/R138H/R169H/T345S); assay: Peptide binding to HLA-A2: upregulation on T2 cells by flow cytometry (Example IV); settings: T2 cells incubated 24 h with peptide 50 μg/ml/10^6 cells; 100 cut off value for positivity; None = 16.88
T2 construct: endogenous in cells; host or cells: T2 cells (174CEM.T2, transport deletion mutant)
Procedure: 1×10^6 cells in serum-free IMDM were incubated with peptides at the concentration of 50 μg/ml in 24-well culture plates at 37° C. in 5% CO2. Flow cytometry for peptide binding was performed using T2 cells and single color analysis. After cells were washed three times in DPBS as above, they were incubated for 1 hr with HLA-A2 specific MAb A2,69 (One lambda, Inc., Canoga Park, Calif.), using 10 μl of a 1× working dilution per 10^6 cells. MOPC-21 (Cappel/Organon Teknika Corp.) was used as isotype control. The cells were then washed three times and incubated with 1:100 dilution of fluorescein (FITC) labeled anti-mouse IgG (Kirkegaard & Perry, Gaithersburg, Md.). Analysis was carried out using the FACScan as described above. Cells were maintained on ice during all cell preparation and staining unless otherwise stated.

[3] = tested on: PSA negative human colon cancer cell line COLO-205; assay: Cytotoxic assay of PSA peptide specific T cells against COLO-205; type: cell-based; settings: 24 hour assay, E:T ratio 25:1
Text: as §1

T2 cells = assay: Cytotoxic assay of PSA peptide specific T cells against T2 cells; type: cell-based, human; settings: 24 hour assay, E:T ratio 25:1
[4] = tested on: LNCAP PSA expressing human prostate cancer cell line; assay: Cytotoxic assay of PSA peptide specific T cells against LNCAP (Example III); type: cell-based; settings: 24 hour assay, E:T ratio 25:1
Text: as §1

[5] = tested on: PBMC from normal healthy donors expressing the HLA A2 class 1 allele; assay: Establishment of human T cell lines by pulsing PBMC with peptide and IL-2; type: cell-based; settings: donors with T cell line / donors tested; PBMC pulsed with peptide and IL-2
Text: Cytotoxic T-cells specific for PSA can be established from peripheral blood mononuclear cells (PBMC) obtained from a host immunized as discussed above. For example, PBMC can be separated by using Lymphocyte Separation Medium gradient (Organon Teknika, Durham, N.C., USA) as previously described [Boyum et al, Scand J. Clin Lab Invest 21:77-80 (1968)]. Washed PBMC are resuspended in a complete medium, for example, RPMI 1640 (GIBCO) supplemented with 10% pool human AB serum (Pel-Freeze Clinical System, Brown Dear, Wisc., USA), 2 mM glutamine, 100 U/ml penicillin and 100 μg/ml of streptomycin (GIBCO). PBMC at a concentration of about 2×10^5 cells in complete medium in a volume of, for example 100 μl are added into each well of a 96-well flat-bottom assay plate (Costar, Cambridge, Mass., USA). The antigen or peptides are added into the cultures in a final concentration of about 50 μg/ml and incubated at 37° C. in a humidified atmosphere containing 5% CO2 for 5 days. After removal of peptide containing media, the cultures are provided with fresh human IL-2 (10 U/ml) after 5 days and replenished with IL-2 containing medium every 3 days. Primary cultures are restimulated with the same peptide (50 μg/ml) on day 16. 5×10^5 irradiated (4,000 rad) autologous PBMC are added in a volume of about 50 μl complete medium as antigen-presenting cells (APC). […]

[6] = tested on: PBLs isolated from male HLA-A2001+ donors; assay: Limiting dilution analysis of CTL precursor frequency; type: cell-based, human; settings: for Number of precursors (precursor frequency): calculated by X^2 minimization; for % of negative microcolonies, 10,000: two cycles of stimulation with the peptide, targets CIRA2 pulsed 3 h, cold K562
Procedure: Limiting dilution assays were used for the determination of precursor frequencies to PSA-1, PSA-3 and PSA-OP. Various number of PBMCs were seeded in 96-well flat bottom plates (Coming Costar) with 1×10^4 autologous PBMC irradiated with 4,000 rads and incubated with 50 μg/ml of PSA peptide. Cells were cultured in complete medium as described previously. At least 48 cultures were set up for each dilution. Cultures were incubated for 5 days at 37° C. in a humidified atmosphere containing 5% CO2 and then provided with fresh medium containing human IL-2 for 11 days, with IL-2-containing medium being replenished every 72 hr as shown below for CTLs generation. After two cycles of stimulation specific cytotoxic activity was tested for each single well, against CIR-A2 target cells with or without incubation with peptide. Cytotoxic assays were similar to the method described above. The unlabelled K562 cells were added to the microwells containing responder cells. After 1 hr incubation at 37° C. target cells were added into each well and incubated for 6 hrs at 37° C. Precursor frequencies were calculated by X^2 minimization.

[7] = T-Donor C T-cell line (prostate cancer patient)

CC[C@H](C)[C@H](NC(=O)[C@@H](NC(=O)[C@H](Cc1c[nH]cn1)NC(=O)[C@H](CC(C)C)NC(=O)[C@H](CC(=O)O)NC(=O)[C@@H](NC(=O)[C@H](CS)NC(=O)[C@H](CCC(N)=O)NC(=O)[C@H](CC(C)C)NC(=O)[C@H](CCCCN)NC(=O)[C@H](CCCCN)NC(=O)[C@@H]1CCCN1C(=O)[C@@H](NC(=O)[C@H](CC(C)C)NC(=O)[C@@H](N)Cc1ccccc1)[C@@H](C)O)C(C)C)C(C)C)C(=O)N[C@@H](CO)C(=O)N[C@@H](CC(N)=O)C(=O)N[C@@H](CC(=O)O)C(=O)N[C@H](C(=O)N[C@@H](CS)C(=O)N[C@@H](C)C(=O)N[C@@H](CCC(N)=O)C(=O)N[C@H](C(=O)N[C@@H](Cc1c[nH]cn1)C(=O)N1CCC[C@H]1C(=O)N[C@@H](CCC(N)=O)C(=O)N[C@@H](CCCCN)C(=O)N[C@H](C(=O)N[C@H](C(=O)N[C@@H](CCCCN)C(=O)O)[C@@H](C)O)C(C)C)C(C)C)C(C)C [PSA-OP] (H-FLTPKKLQCVDLHVISNDVCAQVHPQKVTK-OH; N-terminus and C-terminus assumed)
solubility [1]: 2000 µg/mL (≈ 590 µM)

KLQCVDLHV [PSA 146-154, ID No. 9]
MAb A2, 69: Mean channel fluorescent intensity (human HLA A2 molecules): 223.97 | MAb A2, 69: Mean channel fluorescent intensity (human HLA A2 molecules; listed as 146-154): positive

NC(N)=NCCSCC(CS)C(=O)O (centres unmarked) [Plummer's]
% of Specific Release (+/−SD), CIRA2 cells, No peptide (CIR-A2 cells; inhibitor 10^−5 M): 10.7 (2.0) %

VISNDVCAQV [PSA-3, ID No. 2]
% specific release (lysis), K562 (NK target K562; T-Donor A T-cell line): 22% | % specific release (lysis), K562 (NK target K562; T-Donor B T-cell line): 3% | % specific release (lysis), K562 (NK target K562; [7]): 2% | T2 binding: relative fluorescence (mean intensity) with anti-HLA-A2 mAb [2]: 123.71 | % specific release (lysis), COLO-205 ([3]; T-Donor A T-cell line): 10% | % specific release (lysis), COLO-205 ([3]; T-Donor B T-cell line): 10% | % specific release (lysis), COLO-205 [3, 7]: 8% | % specific release (lysis), T2 (T2 cells; T-Donor A T-cell line derived with the peptide, 111In release): 16% | % specific release (lysis), T2 + peptide (T2 cells; T-Donor A T-cell line): 35^b % | % specific release (lysis), T2 (T2 cells; T-Donor B T-cell line): 10% | % specific release (lysis), T2 + peptide (T2 cells; T-Donor B T-cell line): 40^b % | % specific release (lysis), T2 (T2 cells; [7]): 15% | % specific release (lysis), T2 + peptide (T2 cells; [7]): 35^b % | % specific release (lysis), LNCAP ([4]; T-Donor A T-cell line): 60^b % | % specific release (lysis), LNCAP ([4]; T-Donor B T-cell line): 29^b % | % specific release (lysis), LNCAP [4, 7]: 35^b % | T cell lines established from normal donors [5]: 6/6 | % of negative microcolonies, 500 ([6]; T/PSA-OP 2 donor): 100.0% | % of negative microcolonies, 1,000 ([6]; T/PSA-OP 2 donor): 100.0% | % of negative microcolonies, 5,000 ([6]; T/PSA-OP 2 donor): 97.8% | Number of precursors (precursor frequency) ([6]; T/PSA-OP 2 donor): 1/244200 | % of negative microcolonies, 10,000 ([6]; T/PSA-OP 2 donor): 95.8% | % of negative microcolonies, 500 ([6]; T/PSA-OP 3 donor): 97.6% | % of negative microcolonies, 1,000 ([6]; T/PSA-OP 3 donor): 95.8% | % of negative microcolonies, 5,000 ([6]; T/PSA-OP 3 donor): 93.7% | Number of precursors (precursor frequency) ([6]; T/PSA-OP 3 donor): 1/59279 | % of negative microcolonies, 10,000 ([6]; T/PSA-OP 3 donor): 89.6% | MAb A2, 69: Mean channel fluorescent intensity (human HLA A2 molecules; listed as 154-163): positive | MAb A2, 69: Mean channel fluorescent intensity (human HLA A2 molecules; listed as PSA 154-163): 182.30

CC(C)C[C@H](NC(=O)[C@H]1O[C@@H]1C(=O)O)C(=O)NCCCCN=C(N)N [E 64]
% of Specific Release (+/−SD), CIRA2 cells pulsed with PSA-OP peptide [50 μg/ml] (CIR-A2 cells; inhibitor 10^−6 M): 13.7 (0.6) % | % of Specific Release (+/−SD), CIRA2 cells, No peptide (CIR-A2 cells; inhibitor 10^−6 M): 11.9 (1.7) %

PSA [42-51]: negative control peptide, unable to bind HLA class I-A2 [reference compound]
T2 binding: relative fluorescence (mean intensity) with anti-HLA-A2 mAb [2]: 51.44

C[C@H](CS)C(=O)N1CCC[C@H]1C(=O)O [Captopril, captopril]
% of Specific Release (+/−SD), CIRA2 cells pulsed with PSA-OP peptide [50 μg/ml] (CIR-A2 cells; inhibitor 10^−6 M): 11.0 (2.6) % | % of Specific Release (+/−SD), CIRA2 cells, No peptide (CIR-A2 cells; inhibitor 10^−6 M): 15.8 (2.1) %
